Measured values from patent publication US9623028B2, “Methods of treating a cancer using substituted pyrrolopyrimidine compounds, compositions thereof” (Signal Pharmaceuticals, LLC, priority 2014, dated 2017).

Key:
[1] = target: CLK2 (Homo sapiens (Human), UniProt P49760); assay: biochemical; settings: read-out: CLK2 (% Inh.), % inhibition at 3 μM
[2] = target: CLK1 (Homo sapiens (Human), UniProt P49759); assay: biochemical; settings: read-out: CLK1 (% Inh.), % inhibition at 3 μM
Chain of CLK1 (P49759 whole entry): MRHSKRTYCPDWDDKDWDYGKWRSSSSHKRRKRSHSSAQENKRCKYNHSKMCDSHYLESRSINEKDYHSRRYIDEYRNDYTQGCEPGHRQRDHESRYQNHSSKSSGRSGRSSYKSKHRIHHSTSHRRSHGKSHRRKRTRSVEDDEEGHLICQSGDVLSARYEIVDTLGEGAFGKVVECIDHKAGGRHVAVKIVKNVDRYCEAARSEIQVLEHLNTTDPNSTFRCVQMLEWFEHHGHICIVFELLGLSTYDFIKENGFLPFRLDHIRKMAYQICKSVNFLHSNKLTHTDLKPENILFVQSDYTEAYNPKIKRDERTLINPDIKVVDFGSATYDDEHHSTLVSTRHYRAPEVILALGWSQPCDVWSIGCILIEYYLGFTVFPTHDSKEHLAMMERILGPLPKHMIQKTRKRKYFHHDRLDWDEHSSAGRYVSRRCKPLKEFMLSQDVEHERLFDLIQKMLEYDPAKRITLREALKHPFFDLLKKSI

Chain of CLK2 (P49760 whole entry): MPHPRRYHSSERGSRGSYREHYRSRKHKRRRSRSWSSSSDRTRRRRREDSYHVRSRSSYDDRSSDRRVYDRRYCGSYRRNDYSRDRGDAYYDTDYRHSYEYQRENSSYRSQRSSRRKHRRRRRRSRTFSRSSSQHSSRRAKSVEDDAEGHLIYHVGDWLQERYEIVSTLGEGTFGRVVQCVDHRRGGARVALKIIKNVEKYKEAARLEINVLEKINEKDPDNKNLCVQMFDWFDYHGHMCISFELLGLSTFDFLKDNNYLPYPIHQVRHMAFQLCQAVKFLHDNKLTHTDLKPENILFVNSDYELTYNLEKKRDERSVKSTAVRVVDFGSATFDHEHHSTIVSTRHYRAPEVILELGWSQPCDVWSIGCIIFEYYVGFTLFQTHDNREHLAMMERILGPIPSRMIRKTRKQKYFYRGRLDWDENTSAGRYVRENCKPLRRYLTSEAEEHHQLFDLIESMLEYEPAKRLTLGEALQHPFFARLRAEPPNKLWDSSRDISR

Row | SMILES | inhibition at 3 µM [1] [%] | inhibition at 3 µM [2] [%]
1 | CNC(=O)c1ccc(Nc2nc(O[C@H]3CCOC3)c3c(-c4ccc5nc(C)oc5c4)c[nH]c3n2)c(OC)c1 [Compound 169, (S)-3-methoxy-N-methyl-4-(5-(2-methylbenzo[d]oxazol-6-yl)-4-(tetrahydrofuran-3-yloxy)-7H-pyrrolo[2,3-d]pyrimidin-2-ylamino)benzamide] | 105 | 100
2 | Cc1nc2ccc(-c3c[nH]c4nc(Nc5cnn(C6CCOCC6)c5Cl)nc(OC5CCCC5)c34)cc2o1 [Compound 377, N-(5-chloro-1-(tetrahydro-2H-pyran-4-yl)-1H-pyrazol-4-yl)-4-(cyclopentyloxy)-5-(2-methylbenzo[d]oxazol-6-yl)-7H-pyrrolo[2,3-d]pyrimidin-2-amine] | 100 | 99
3 | CNC(=O)c1ccc(Nc2nc(OC3CCC(C)(O)CC3)c3c(-c4ccc5nc(C)oc5c4)c[nH]c3n2)c(C)c1 (stereo not drawn) [Compound 150, 4-(4-((1r,4r)-4-hydroxy-4-methylcyclohexyloxy)-5-(2-methylbenzo[d]oxazol-6-yl)-7H-pyrrolo[2,3-d]pyrimidin-2-ylamino)-N,3-dimethylbenzamide] | 111 | 99
4 | CNC(=O)c1ccc(Nc2nc(NC3CCCC3)c3c(-c4ccc(O)cc4)c[nH]c3n2)c(OC)c1 [Compound 16, 4-(4-(cyclopentylamino)-5-(4-hydroxyphenyl)-7H-pyrrolo[2,3-d]pyrimidin-2-ylamino)-3-methoxy-N-methylbenzamide] | 90 | 92
5 | COc1nc(Nc2ccc(C(=O)N(C)C)cc2Cl)nc2[nH]cc(-c3ccncc3)c12 [Compound 157, 3-chloro-4-(4-methoxy-5-(pyridin-4-yl)-7H-pyrrolo[2,3-d]pyrimidin-2-ylamino)-N,N-dimethylbenzamide] | 105 | 95
6 | CNC(=O)c1ccc(Nc2nc(OC)c3c(-c4ccc(OC)nc4)c[nH]c3n2)c(OC)c1 [Compound 118, 3-methoxy-4-(4-methoxy-5-(6-methoxypyridin-3-yl)-7H-pyrrolo[2,3-d]pyrimidin-2-ylamino)-N-methylbenzamide] | 98 | 98
7 | CNC(=O)c1ccc(Nc2nc(OC3CCC(C)(O)CC3)c3c(-c4ccc5nc(C)oc5c4)c[nH]c3n2)c(OC)c1 (stereo not drawn) [Compound 205, 4-(4-((1r,4r)-4-hydroxy-4-methylcyclohexyloxy)-5-(2-methylbenzo[d]oxazol-6-yl)-7H-pyrrolo[2,3-d]pyrimidin-2-ylamino)-3-methoxy-N-methylbenzamide] | 103 | 99
8 | CNC(=O)c1ccc(Nc2nc(OC3CCOCC3)c3c(-c4cnn(C)c4)c[nH]c3n2)c(OC)c1 [Compound 184, 3-methoxy-N-methyl-4-(5-(1-methyl-1H-pyrazol-4-yl)-4-(tetrahydro-2H-pyran-4-yloxy)-7H-pyrrolo[2,3-d]pyrimidin-2-ylamino)benzamide] | 98 | 101
9 | CNC(=O)c1ccc(Nc2nc(OC3CCOCC3)c3c(-c4ccc(-c5nc(C)c(C)[nH]5)cc4)c[nH]c3n2)c(OC)c1 [Compound 197, 4-(5-(4-(4,5-dimethyl-1H-imidazol-2-yl)phenyl)-4-(tetrahydro-2H-pyran-4-yloxy)-7H-pyrrolo[2,3-d]pyrimidin-2-ylamino)-3-methoxy-N-methylbenzamide] | 103 | 100
10 | Cc1nc2ccc(-c3c[nH]c4nc(Nc5cnn(C)c5C)nc(OC5CCCC5)c34)cc2o1 [Compound 296, 4-(cyclopentyloxy)-N-(1,5-dimethyl-1H-pyrazol-4-yl)-5-(2-methylbenzo[d]oxazol-6-yl)-7H-pyrrolo[2,3-d]pyrimidin-2-amine] | 104 | 101
11 | CNC(=O)c1ccc(Nc2nc(OC3CCOCC3)c3c(-c4ccc(O)cc4)c[nH]c3n2)c(OC)c1 [Compound 17, 4-(5-(4-hydroxyphenyl)-4-(tetrahydro-2H-pyran-4-yloxy)-7H-pyrrolo[2,3-d]pyrimidin-2-ylamino)-3-methoxy-N-methylbenzamide] | 98 | 97
12 | CNC(=O)c1ccc(Nc2nc(OC3CCCC3)c3c(-c4cccnc4)c[nH]c3n2)c(OC)c1 [Compound 58, 4-(4-(cyclopentyloxy)-5-(pyridin-3-yl)-7H-pyrrolo[2,3-d]pyrimidin-2-ylamino)-3-methoxy-N-methylbenzamide] | 103 | 96
13 | COc1cc(C(=O)N[C@H](C)CO)ccc1Nc1nc(OC2CCCC2)c2c(-c3ccc4nc(C)oc4c3)c[nH]c2n1 [Compound 214, (R)-4-(4-(cyclopentyloxy)-5-(2-methylbenzo[d]oxazol-6-yl)-7H-pyrrolo[2,3-d]pyrimidin-2-ylamino)-N-(1-hydroxypropan-2-yl)-3-methoxybenzamide] | 100 | 97
14 | CNC(=O)c1ccc(Nc2nc(OC3CCCC3)c3c(-c4ccc(OC)c(OC)c4)c[nH]c3n2)c(OC)c1 [Compound 64, 4-(4-(cyclopentyloxy)-5-(3,4-dimethoxyphenyl)-7H-pyrrolo[2,3-d]pyrimidin-2-ylamino)-3-methoxy-N-methylbenzamide] | 99 | 68
15 | CNC(=O)c1ccc(Nc2nc(OC3CCOCC3)c3c(-c4ccn(C)n4)c[nH]c3n2)c(OC)c1 [Compound 163, 3-methoxy-N-methyl-4-(5-(1-methyl-1H-pyrazol-3-yl)-4-(tetrahydro-2H-pyran-4-yloxy)-7H-pyrrolo[2,3-d]pyrimidin-2-ylamino)benzamide] | 102 | 100
16 | Cc1nc2ccc(-c3c[nH]c4nc(Nc5cnn(CC(C)(C)O)c5Cl)nc(OC5CCCC5)c34)cc2o1 [Compound 371, 1-(5-chloro-4-(4-(cyclopentyloxy)-5-(2-methylbenzo[d]oxazol-6-yl)-7H-pyrrolo[2,3-d]pyrimidin-2-ylamino)-1H-pyrazol-1-yl)-2-methylpropan-2-ol] | 100 | 100
17 | CNC(=O)c1ccc(Nc2nc(OC(C)C)c3c(-c4ccc(-c5ncc[nH]5)cc4)c[nH]c3n2)c(OC)c1 [Compound 193, 4-(5-(4-(1H-imidazol-2-yl)phenyl)-4-isopropoxy-7H-pyrrolo[2,3-d]pyrimidin-2-ylamino)-3-methoxy-N-methylbenzamide] | 99 | 100
18 | Cc1nc2ccc(-c3c[nH]c4nc(Nc5ccc(C(=O)N(C)C)cc5C)nc(O[C@H]5CCOC5)c34)cc2o1 [Compound 98, (S)-N,N,3-trimethyl-4-(5-(2-methylbenzo[d]oxazol-6-yl)-4-(tetrahydrofuran-3-yloxy)-7H-pyrrolo[2,3-d]pyrimidin-2-ylamino)benzamide] | 104 | 103
19 | CNC(=O)c1ccc(Nc2nc(OC3CCCC3)c3c(-c4ccc(O)cc4)c[nH]c3n2)c(C(C)C)c1 [Compound 11, 4-(4-(cyclopentyloxy)-5-(4-hydroxyphenyl)-7H-pyrrolo[2,3-d]pyrimidin-2-ylamino)-3-isopropyl-N-methylbenzamide] | 94 | 95
20 | CNC(=O)c1ccc(Nc2nc(OC(C)C)c3c(-c4ccnc(OC)c4)c[nH]c3n2)c(OC)c1 [Compound 185, 4-(4-isopropoxy-5-(2-methoxypyridin-4-yl)-7H-pyrrolo[2,3-d]pyrimidin-2-ylamino)-3-methoxy-N-methylbenzamide] | 106 | 98
21 | CCOc1ccc(-c2c[nH]c3nc(Nc4ccc(C(=O)NC)cc4C)nc(O[C@H]4CCOC4)c23)cn1 [Compound 162, (S)-4-(5-(6-ethoxypyridin-3-yl)-4-(tetrahydrofuran-3-yloxy)-7H-pyrrolo[2,3-d]pyrimidin-2-ylamino)-N,3-dimethylbenzamide] | 106 | 100
22 | COc1cc(C(=O)NCCO)ccc1Nc1nc(OC2CCOCC2)c2c(-c3ccc4nc(C)oc4c3)c[nH]c2n1 [Compound 213, N-(2-hydroxyethyl)-3-methoxy-4-(5-(2-methylbenzo[d]oxazol-6-yl)-4-(tetrahydro-2H-pyran-4-yloxy)-7H-pyrrolo[2,3-d]pyrimidin-2-ylamino)benzamide] | 100 | 99
23 | CNC(=O)c1ccc(Nc2nc(OC3CCOCC3)c3c(-c4ccc5nc(C)n(C)c5c4)c[nH]c3n2)c(OC)c1 [Compound 148, 4-(5-(1,2-dimethyl-1H-benzo[d]imidazol-6-yl)-4-(tetrahydro-2H-pyran-4-yloxy)-7H-pyrrolo[2,3-d]pyrimidin-2-ylamino)-3-methoxy-N-methylbenzamide] | 106 | 99
24 | Cc1cc(C(=O)N(C)C)ccc1Nc1nc(OC2CCOCC2)c2c(-c3ccnc(C#N)c3)c[nH]c2n1 [Compound 140, 4-(5-(2-cyanopyridin-4-yl)-4-(tetrahydro-2H-pyran-4-yloxy)-7H-pyrrolo[2,3-d]pyrimidin-2-ylamino)-N,N,3-trimethylbenzamide] | 103 | 97
25 | CNC(=O)c1ccc(Nc2nc(OC3CCOCC3)c3c(-c4ccc(-c5nc(C)c[nH]5)cc4)c[nH]c3n2)c(OC)c1 [Compound 207, 3-methoxy-N-methyl-4-(5-(4-(4-methyl-1H-imidazol-2-yl)phenyl)-4-(tetrahydro-2H-pyran-4-yloxy)-7H-pyrrolo[2,3-d]pyrimidin-2-ylamino)benzamide] | 99 | 99
26 | COc1cc(C(=O)NCCO)ccc1Nc1nc(OC2CC2)c2c(-c3ccc4nc(C)oc4c3)c[nH]c2n1 [Compound 216, 4-(4-cyclopropoxy-5-(2-methylbenzo[d]oxazol-6-yl)-7H-pyrrolo[2,3-d]pyrimidin-2-ylamino)-N-(2-hydroxyethyl)-3-methoxybenzamide] | 99 | 99
27 | CC[C@H](C)Oc1nc(Nc2ccc(C(=O)NC)cc2OC)nc2[nH]cc(-c3ccc4nc(C)oc4c3)c12 [Compound 204, (S)-4-(4-sec-butoxy-5-(2-methylbenzo[d]oxazol-6-yl)-7H-pyrrolo[2,3-d]pyrimidin-2-ylamino)-3-methoxy-N-methylbenzamide] | 99 | 98
